Test results reported in US20260184663A1, “INDENE COMPOUNDS, PHARMACEUTICAL COMPOSITIONS THEREOF, AND THEIR THERAPEUTIC APPLICATIONS” (NucMito Pharmaceuticals co. Ltd., priority 2022, published 2026).
Like-named read-outs stand apart in the source and are kept apart here.

Experiments:
Assay type in all cases: cell-based
[1] = tested on: MDA-MB-231 (breast cancer); assay: Antiproliferative activity (CCK-8 cell viability), MDA-MB-231; details: Homo sapiens, 72 h; for inhibition at 3.3 µM: Compound concentration: 3.3 μM; for inhibition at 10 µM: Compound concentration: 10 μM; for inhibition at 30 µM: Compound concentration: 30 μM
Summary of the method: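 In this CCK-8 viability assay, MDA-MB-231 cells maintained in Dulbecco's modified Eagle's medium containing 10% fetal bovine serum were placed in 96-well plates (2,000-5,000 cells/well) and treated with compound for 72 h at 37° C. A 4 h incubation with 10 μL CCK-8 followed, plates were read at 450 nm, and viability was expressed against DMSO vehicle wells across replicates.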

[2] = tested on: HepG2 (liver cancer); assay: Antiproliferative activity (CCK-8 cell viability), HepG2; details: Homo sapiens, 72 h, read-out: Antiproliferative activity in cancerous cells, HepG2 (inhibition of cell growth); for inhibition at 3.3 µM: Compound concentration: 3.3 μM; for inhibition at 10 µM: Compound concentration: 10 μM; for inhibition at 30 µM: Compound concentration: 30 μM
Summary of the method: (§1)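 Cells were seeded at 2,000-5,000/well (HeLa in MEM, HepG2 and SW480 in DMEM, A549 in F-12K, all with 10% FBS) and treated with compound at 3.3, 10 or 30 μM for 72 h at 37° C. CCK-8 was added for 4 h, absorbance was read at 450 nm, and viability was expressed relative to DMSO-treated wells.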

[3] = tested on: SW480 (colon cancer); assay: Antiproliferative activity (CCK-8 cell viability), SW480; details: Homo sapiens, 72 h, read-out: Antiproliferative activity in cancerous cells, SW480 (inhibition of cell growth); for inhibition at 3.3 µM: Compound concentration: 3.3 μM; for inhibition at 10 µM: Compound concentration: 10 μM; for inhibition at 30 µM: Compound concentration: 30 μM
Summary of the method: as §1

[4] = tested on: B16F10 (malignant melanoma); assay: Antiproliferative activity (CCK-8 cell viability), B16F10; details: Mus musculus, 72 h, read-out: Antiproliferative activity in cancerous cells, B16F10 (inhibition of cell growth); for inhibition at 3.3 µM: B16-F10, Compound concentration: 3.3 μM; for inhibition at 10 µM: B16-F10, Compound concentration: 10 μM; for inhibition at 30 µM: B16-F10, Compound concentration: 30 μM
Summary of the method: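 Attached B16F10 cells in 96-well plates were incubated with compound at 37° C for 72 h, followed by 10 μL CCK-8 reagent per well and a further 4 h incubation. A multi-well plate reader measured absorbance at 450 nm. Percent viability across replicates was calculated against DMSO vehicle-treated cells.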

[5] = tested on: A431 (epidermoid carcinoma); assay: Antiproliferative activity (CCK-8 cell viability), A431; details: Homo sapiens, 72 h, read-out: Antiproliferative activity in cancerous cells, A431 (inhibition of cell growth); for inhibition at 3.3 µM: A-431, Compound concentration: 3.3 μM; for inhibition at 10 µM: A-431, Compound concentration: 10 μM; for inhibition at 30 µM: A-431, Compound concentration: 30 μM
Summary of the method: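 Cell viability of compound-treated A431 cells was measured with a Cell Counting Kit-8. Each well received 10 μL of CCK-8 after 72 h of compound exposure, followed by 4 h incubation at 37° C. and a 450 nm plate-reader measurement. Percent viability was calculated relative to DMSO controls across replicates.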

[6] = tested on: A549 (lung adenocarcinoma); assay: Antiproliferative activity (CCK-8 cell viability), A549; details: Homo sapiens, 72 h, read-out: Antiproliferative activity in cancerous cells, A549 (inhibition of cell growth); for inhibition at 3.3 µM: Compound concentration: 3.3 μM; for inhibition at 10 µM: Compound concentration: 10 μM; for inhibition at 30 µM: Compound concentration: 30 μM
Summary of the method: as §1

[7] = tested on: HeLa (cervical cancer); assay: Antiproliferative activity (CCK-8 cell viability), HeLa; details: Homo sapiens, 72 h, read-out: Antiproliferative activity in cancerous cells, HELA (inhibition of cell growth); for inhibition at 3.3 µM: Compound concentration: 3.3 μM; for inhibition at 10 µM: Compound concentration: 10 μM; for inhibition at 30 µM: Compound concentration: 30 μM
Summary of the method: as §1

[8] = read-out: Antiproliferative activity in cancerous cells, MDA-MB-231 (inhibition of cell growth)

Compound	inhibition at 3.3 µM [1, 8] [%]	inhibition at 10 µM [1, 8] [%]	inhibition at 3.3 µM [2] [%]	inhibition at 10 µM [2] [%]	inhibition at 3.3 µM [3] [%]	inhibition at 10 µM [3] [%]	inhibition at 3.3 µM [4] [%]	inhibition at 10 µM [4] [%]	inhibition at 3.3 µM [5] [%]	inhibition at 10 µM [5] [%]	inhibition at 3.3 µM [6] [%]	inhibition at 10 µM [6] [%]	inhibition at 3.3 µM [7] [%]	inhibition at 10 µM [7] [%]	other results
CC1=C(CC(=O)O)c2cc(F)ccc2/C1=C\c1ccc(CN(CCc2ccccc2)c2ccccc2)cc1 [B19, (Z)-2-(5-Fluoro-2-methyl-1-(4-((phenethyl(phenyl)amino)methyl)benzylidene)-1H-inden-3-yl)acetic acid]	≥ 50	≥ 50	< 30	≥ 50	30 to 50	≥ 50	< 30	≥ 50	< 30	≥ 50	≥ 50	≥ 50	30 to 50	≥ 50	–
CC1=C(CC(=O)O)c2cc(F)ccc2/C1=C\c1ccc(CCOC2CCCCO2)cc1 (stereo not drawn) [B47, (Z)-2-(5-Fluoro-2-methyl-1-(4-(2-((tetrahydro-2H-pyran-2-yl)oxy)ethyl)-benzylidene)-1H-inden-3-yl)acetic acid]	≥ 50	≥ 50	30 to 50	≥ 50	< 30	≥ 50	≥ 50	≥ 50	30 to 50	30 to 50	< 30	≥ 50	≥ 50	≥ 50	–
CC1=C(CC(=O)O)c2cc(F)ccc2/C1=C\c1ccc(C2(c3ccccc3)SCCS2)cc1 [C353, (Z)-2-(5-Fluoro-2-methyl-1-(4-(2-phenyl-1,3-dithiolan-2-yl)benzylidene)-1H-inden-3-yl)acetic acid]	≥ 50	≥ 50	≥ 50	≥ 50	≥ 50	≥ 50	< 30	≥ 50	≥ 50	≥ 50	< 30	≥ 50	≥ 50	≥ 50	inhibition at 30 µM [1, 8]: ≥ 50%; inhibition at 30 µM [2]: ≥ 50%; inhibition at 30 µM [3]: ≥ 50%; inhibition at 30 µM [4]: ≥ 50%; inhibition at 30 µM [5]: ≥ 50%; inhibition at 30 µM [6]: ≥ 50%; inhibition at 30 µM [7]: ≥ 50%
CC1=C(CC(=O)O)c2cc(F)ccc2/C1=C\c1ccc(Sc2ccc(F)cc2)cc1 [C47, (Z)-2-(5-Fluoro-1-(4-((4-fluorophenyl)thio)benzylidene)-2-methyl-1H-inden-3-yl)acetic acid]	< 30	< 30	< 30	≥ 50	< 30	≥ 50	< 30	≥ 50	30 to 50	≥ 50	< 30	≥ 50	< 30	≥ 50	inhibition at 30 µM ([1]; read-out: Antiproliferative activity in cancerous cells, MDA-MB-231): < 30%
CC1=C(CC(=O)O)c2cc(Cl)ccc2/C1=C/c1ccc(Oc2ccc(C(C)C)cc2)cc1 [E30, (E)-2-(5-Chloro-1-(4-(4-isopropylphenoxy)benzylidene)-2-methyl-1H-inden-3-yl)acetic acid]	≥ 50	≥ 50	30 to 50	≥ 50	≥ 50	≥ 50	≥ 50	≥ 50	< 30	≥ 50	< 30	≥ 50	≥ 50	≥ 50	inhibition at 30 µM [1, 8]: ≥ 50%; inhibition at 30 µM [2]: ≥ 50%; inhibition at 30 µM [3]: ≥ 50%; inhibition at 30 µM [4]: ≥ 50%; inhibition at 30 µM [5]: ≥ 50%; inhibition at 30 µM [6]: ≥ 50%; inhibition at 30 µM [7]: ≥ 50%
CC1=C(CC(=O)O)c2cc(F)ccc2/C1=C\c1ccc(Oc2ccc(Cl)c(F)c2)cc1 [C56, (Z)-2-(1-(4-(4-Chloro-3-fluorophenoxy)benzylidene)-5-fluoro-2-methyl-1H-inden-3-yl)acetic acid]	≥ 50	≥ 50	< 30	< 30	< 30	≥ 50	≥ 50	≥ 50	≥ 50	≥ 50	< 30	< 30	≥ 50	≥ 50	–
COc1ccc(CCCc2ccc(/C=C3/C(C)=C(CC(=O)O)c4cc(Br)ccc43)cc2)cc1 [B128, (Z)-2-(5-Bromo-1-(4-(3-(4-methoxyphenyl)propyl)benzylidene)-2-methyl-1H-inden-3-yl)acetic acid]	≥ 50	≥ 50	≥ 50	≥ 50	≥ 50	≥ 50	≥ 50	≥ 50	≥ 50	≥ 50	≥ 50	≥ 50	≥ 50	≥ 50	–
COc1ccc(CCCc2ccc(/C=C3/C(C)=C(CC(=O)O)c4cc(F)ccc43)cc2)cc1 [B126, (Z)-2-(5-Fluoro-1-(4-(3-(4-methoxyphenyl)propyl)benzylidene)-2-methyl-1H-inden-3-yl)acetic acid]	≥ 50	≥ 50	30 to 50	≥ 50	< 30	≥ 50	< 30	≥ 50	< 30	≥ 50	< 30	≥ 50	30 to 50	≥ 50	–
CC1=C(CC(=O)O)c2cc(F)ccc2/C1=C\c1ccc(OCCc2ccc(F)cc2)cc1 [B31, (Z)-2-(5-Fluoro-1-(4-(4-fluorophenethoxy)benzylidene)-2-methyl-1H-inden-3-yl)acetic acid]	< 30	≥ 50	< 30	≥ 50	< 30	< 30	≥ 50	≥ 50	30 to 50	≥ 50	30 to 50	30 to 50	< 30	≥ 50	–
